One assay has as its target T1, T. foetus HGXPRT (Tritrichomonas foetus, UniProt P51900).
T1 construct: made in house; host or cells: E. coli strain SØ606 transformed with pBTfprt
T1 sequence (P51900 1-183): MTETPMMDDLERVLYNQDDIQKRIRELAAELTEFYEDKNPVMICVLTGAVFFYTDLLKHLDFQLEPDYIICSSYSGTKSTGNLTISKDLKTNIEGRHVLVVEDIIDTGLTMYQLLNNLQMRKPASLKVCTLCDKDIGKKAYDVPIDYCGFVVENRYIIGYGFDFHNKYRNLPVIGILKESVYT
As to the kind of experiment: Spectrophotometric enzyme assay, recombinant T. foetus HGXPRT. Format: biochemical. The conditions noted are these: for increase in affinity for T. foetus HGXPRT (lower IC50) compared to compound Ia(1): relative to compound Ia(1); for potency of combined 2-methyl / benzyl-substituted inhibitors relative to parent inhibitors: compared with Ia(4), Ia(5), Ia(6). Here is the method:
(§1) Enzyme Assays: Recombinant T. foetus HGXPRT and human HGPRT were isolated from E. coli strain S.O slashed.606, transformed with pBTfprt and pBAcprt expression plasmids, respectively (Chin, et al., Mol. Biochem. Parasitol. 63:221-229 (1994); Kanaaneh, et al., Eur. J. Biochem. 223:595-601 (1994)). Spectrophotometric enzyme assays were performed as described in Yuan, et al., Biochemistry 31:806-810 (1992). The compounds tested were dissolved in DMSO-d6, and concentrations were determined by integration of NMR peaks with methylene chloride as an internal standard. The concentration of DMSO in the assays was kept at 10%.

Assay [1] has as its system T. foetus strain kv1 trophozoites. As to the kind of experiment: Cell culture assay, in vitro growth of T. foetus. As to conditions: for IC50: Tritrichomonas foetus. It counts as cell-based, Tritrichomonas foetus. As for the experimental part:
Cell Culture Assays: T. foetus strain kv1 trophozoites were cultivated in Diamond's TYM medium at 37° C. Cell densities in time samples were determined using a hemocytometer. The concentration of DMSO in culture medium was maintained at or below 1%, which had no apparent effect on cell growth.
Indeed, compound Ia(5)-induced inhibition of T. foetus growth was reversed by increasing the concentration of hypoxanthine in the growth medium. A minimum hypoxanthine concentration between 0.2 and 0.5 mM was required for the survival of the cells challenged with 5 μM of compound Ia(5). Hypoxanthine at concentrations>1 mM essentially abolished any inhibition of cell proliferation under these experimental conditions.

Another assay deals with T2, human HGPRT (Homo sapiens, UniProt P00492).
T2 construct: made in house; host or cells: E. coli strain SØ606 transformed with pBAcprt
T2 sequence (P00492 1-218): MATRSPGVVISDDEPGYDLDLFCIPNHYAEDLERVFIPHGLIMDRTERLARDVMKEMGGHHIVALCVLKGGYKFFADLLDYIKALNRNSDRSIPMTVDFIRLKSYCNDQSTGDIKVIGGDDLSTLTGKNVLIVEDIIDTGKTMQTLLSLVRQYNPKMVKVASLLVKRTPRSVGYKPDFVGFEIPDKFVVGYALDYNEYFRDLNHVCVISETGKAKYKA
The assay can be described thus: Spectrophotometric enzyme assay, recombinant human HGPRT. Format: biochemical. The conditions noted are these: for IC50: Table 2, read-out: IC50, Human HGXPRT; for selectivity for T. foetus HGXPRT over human HGPRT: ratio of human HGPRT to T. foetus HGXPRT inhibition. As for the experimental part: as §1

Setting [2] is: read-out: IC50 values, T. foetus HGXPRT.
Setting [3] is: Table 1, Diamond's TYM medium, 37° C., DMSO at or below 1%, read-out: ED50, in vitro growth of T. foetus.
Setting [4] is: Table 1, 10% DMSO, read-out: IC50, Inhibition of T. foetus HGXPRT.

“Also recorded” adds a separate entry of the source. Read-outs that look alike come from different tables or passages of the source.

As for `O=C(Nc1ccc(Cl)c(Cl)c1)c1ccc2c(c1)C(=O)NC2=O` [(4'-phthalimido)carboxamido-3,4-dichlorobenzene, reference compound], at T. foetus HGXPRT (comparison of the phthalimide with its phthalic anhydride analog), the “activity on HGXPRT compared with 5-[N-(3,4-dichlorophenyl)carbamoyl]-1,3-isobenzofurandione” value is “equally active”.
In the case of `O=C(Nc1cccc(OCc2ccccc2)c1)c1ccc2c(c1)C(=O)NC2=O` [Compound Ia(1)], the IC50 on T. foetus HGXPRT (setting [2]) amounted to 16 µM; in assay [1] (setting [3]), 19 µM.
For the molecule `O=C(Nc1cccc(OCc2ccc(Br)cc2)c1)c1ccc2c(c1)C(=O)NC2=O` [Compound Ia(5), (4'-phthalimido)carboxamido-3-(4-bromobenzyloxy)-benzene], the IC50 at T. foetus HGXPRT (setting [4]) was 1.5 µM; on human HGPRT, 45 µM; in assay [1] (read-out: ED50, growth of cultured T. foetus cells), 2.8 µM. Also, the Ki at T. foetus HGXPRT (competitive with respect to guanine, read-out: K (inhibition constant) with respect to guanine, T. foetus HGXPRT) was 0.49 µM. At T. foetus HGXPRT, the “increase in affinity for T. foetus HGXPRT (lower IC50) compared to compound Ia(1)” value turned out to be 10 fold. The “mode of inhibition of T. foetus HGXPRT” value on T. foetus HGXPRT (with respect to guanine) is “competitive inhibitor; also recorded: competitive mode of inhibition”. Moreover, the “selectivity for T. foetus HGXPRT over human HGPRT” value (from here on “selectivity for T. foetus HGXPRT”) on human HGPRT is given as 30 fold. Besides, the “concentration dependence of inhibition of T. foetus growth in culture” value in assay [1] is reported as “concentration-dependent”. Further, the “hypoxanthine concentration that essentially abolished any inhibition of cell proliferation” value in assay [1] (cells challenged with 5 μM of compound) is above 1 mM. Besides, in assay [1] (increasing hypoxanthine in the growth medium), the “reversal of growth inhibition by exogenous hypoxanthine” value is listed as “reversed”.
For the molecule `O=C(Nc1cccc(OCc2ccc(Cl)c(Cl)c2)c1)c1ccc2c(c1)C(=O)NC2=O` [Compound Ia(12)], the IC50 at T. foetus HGXPRT (setting [4]) amounted to 3.5 µM; on human HGPRT, 24 µM; in assay [1] (setting [3]), 4.6 µM. Further, the “increase in affinity for T. foetus HGXPRT (lower IC50) compared to compound Ia(1)” value on T. foetus HGXPRT is listed as around 5 fold.
As for `Cc1cc(COc2ccccc2)cc(NC(=O)c2ccc3c(c2)C(=O)NC3=O)c1` [Ia(2), (4'-Phthalimido)Carboxamido-3-Methyl-5-Phenoxymethylbenzene], on T. foetus HGXPRT (setting [4]), the IC50 was 28 µM.
Regarding `O=C(Nc1cc(OCc2ccccc2)ccc1Cl)c1ccc2c(c1)C(=O)NC2=O` [Ia(3), (4'-Phthalimido)Carboxamido-3-Benzyloxy-6-Chlorobenzene], the IC50 at T. foetus HGXPRT (setting [4]) was 8 µM.
`Cc1c(NC(=O)c2ccc3c(c2)C(=O)NC3=O)cccc1OCc1ccccc1` [Ia(4)]: the values for the IC50 (at T. foetus HGXPRT (setting [4]); at human HGPRT; in assay [1] (setting [3])) were 3 µM, above 50 µM and 3.9 µM, respectively. Moreover, at human HGPRT, the “selectivity for T. foetus HGXPRT” value is given as “approximately 100 fold”.
For `Cc1ccc(COc2cccc(NC(=O)c3ccc4c(c3)C(=O)NC4=O)c2)cc1` [Ia(6)], on T. foetus HGXPRT (setting [4]), the IC50 is 1.7 µM. In addition, the “increase in affinity for T. foetus HGXPRT (lower IC50) compared to compound Ia(1)” value on T. foetus HGXPRT is reported as 10 fold.
Consider `COc1cc(COc2cccc(NC(=O)c3ccc4c(c3)C(=O)NC4=O)c2)cc(OC)c1` [Ia(7)], for which the IC50 on T. foetus HGXPRT (setting [4]) was 8.2 µM.
As to `O=C(Nc1cccc(OCc2cccc(I)c2)c1)c1ccc2c(c1)C(=O)NC2=O` [Ia(9)], the IC50 on T. foetus HGXPRT (setting [4]) is 8.9 µM.
Consider `O=C(Nc1cccc(OCc2ccccc2I)c1)c1ccc2c(c1)C(=O)NC2=O` [Ia(10)], for which the IC50 at T. foetus HGXPRT (setting [4]) was 4.3 µM; at human HGPRT it was above 50 µM; in assay [1] (setting [3]), 5.1 µM. For the same molecule, the “selectivity for T. foetus HGXPRT” value on human HGPRT is reported as “approximately 100 fold”.
Consider `O=C(Nc1cccc(OCc2c(Cl)cccc2Cl)c1)c1ccc2c(c1)C(=O)NC2=O` [Ia(13)], for which the IC50 on T. foetus HGXPRT (setting [4]) amounted to 12.1 µM.
Take `O=C(Nc1cccc(OCc2cc(Cl)ccc2Cl)c1)c1ccc2c(c1)C(=O)NC2=O` [Ia(14)]: on T. foetus HGXPRT (setting [4]), the IC50 is 7.1 µM.
Regarding `Cc1c(NC(=O)c2ccc3c(c2)C(=O)NC3=O)cccc1OCc1ccc(Br)cc1` [Ia(15)], the IC50 at T. foetus HGXPRT (setting [4]) is 5.2 µM. Further, the “potency of combined 2-methyl / benzyl-substituted inhibitors relative to parent inhibitors” value at T. foetus HGXPRT is “less potency”.
With `Cc1c(NC(=O)c2ccc3c(c2)C(=O)NC3=O)cccc1OCc1ccc(Cl)c(Cl)c1` [Ia(16)], the IC50 at T. foetus HGXPRT (setting [4]) turned out to be 9.3 µM. Also, the “potency of combined 2-methyl / benzyl-substituted inhibitors relative to parent inhibitors” value at T. foetus HGXPRT was “less potency”.
Regarding `CCN(CC)S(=O)(=O)c1ccc(OC)c(NC(=O)c2ccc3c(c2)C(=O)NC3=O)c1` [Ib(1)], the IC50 on T. foetus HGXPRT (setting [4]) was 33 µM; in assay [1] (setting [3]), 39 µM.
In the case of `CN(Cc1ccccc1NC(=O)c1ccc2c(c1)C(=O)NC2=O)C1CCCCC1` [Ic(1)], on T. foetus HGXPRT (setting [4]), the IC50 worked out at 53 µM.
`O=C(Nc1cccc2c1C(=O)NC2=O)c1ccc2c(c1)C(=O)NC2=O` [Id(1)]: the IC50 at T. foetus HGXPRT (setting [2]) worked out at 5 µM.
